Data as given in patent US20190298743A1, “TREATMENT OF PAIN” (Takeda Pharmaceutical Company Limited, priority 2016, published 2019).

Assays:
PAR2 [1] = assay: Whole population FRET with nuclear ERK sensor NucEKAR in HEK293 cells; type: cell-based
Description: (§1) Förster Resonance Energy Transfer (FRET) was used to characterise PAR2 mediated ERK within different subcellular compartments upon stimulation with different agonists. The assays were repeated after employing pharmacological and genetic approaches shown to abolish receptor internalisation to assess the role of internalisation in generating compartmentalised signals.
After achieving ˜50% confluency within 10 cm dishes HEK293 cells were transfected with 2-5 μg of PAR2 with N-terminal HA epitope tag (PAR2-HA) and 2-5 μg of desired FRET biosensor, using PEI as a transfection agent. 24 hours after transfection, cells were seeded into poly-D-lysine coated black 96 well isoplates. FRET was assessed 48 hours after cell plating, following overnight serum restriction. […] When used endocytic inhibitors were diluted in 1×HBSS+1% dimethyl sulfoxide (DMSO). Following the replacement of culture media cells were allowed to equilibrate at 37° C. for 30 minutes. FRET was then determined using a PHERAstar FS microplate reader (BMG LabTech, Offenburg, Germany), cells were sequentially excited at 430 nm with emissions being read at 550 nm and 490 nm. A 4 minute baseline was obtained before the addition of vehicle (1×HBSS+/−1% DMSO), protease or 1 μM PDBu (serving as a positive control). […] FRET ratios were then calculated and corrected to baseline and vehicle treatments in Microsoft Excel 2013.

PAR2 [2] = assay: BRET proximity of PAR2 to KRas (plasma membrane) and Rab5a (endosomes) in HEK cells; type: cell-based; conditions: HEK cells
Description: (§2) The contribution of endocytosis of protease-activated receptor-2 (PAR2) was evaluated for generation of signals in subcellular compartments that mediate protease-evoked sensitization of nociceptors. Bioluminescence resonance energy transfer (BRET) was used to assess the proximity of PAR2 to resident proteins of the plasma membrane (KRas) and endosomes (Rab5a) in HEK cells. […] Förster resonance energy transfer (FRET) biosensors targeted to the plasma membrane, cytosol or nucleus were used to examine the capacity of proteases to generate signals in subcellular compartments of HEK cells and rat dorsal root ganglia neurons. […] Dynamin inhibitor Dyngo4a, Clathrin inhibitor Pitstop2 and dominant negative β-arrestin inhibited trypsin-evoked endocytosis of PAR2, and prevented trypsin-evoked activation of cytosolic cAMP and PKC and nuclear ERK. […] To examine the link between PAR2 endocytosis, compartmentalized signaling and nociceptor sensitization, perforated patch clamp recordings were made from mouse dorsal root ganglia neurons. […] The effects of proteases on excitability were blocked by the PAR2 antagonist GB88. Thus, canonical and biased proteases sensitize nociceptors by distinct mechanisms. For canonical agonists, PAR2 endocytosis generates compartmentalized signals subcellular compartments that underlie sustained excitability of nociceptive neurons. Inhibiting endosomal signaling of PAR2 may provide a novel method of treating protease-evoked pain.

PAR2 [3] = assay: BRET receptor trafficking, PAR2-RLuc8 with early endosomal marker Rab5a-venus in HEK293 cells; type: cell-based
Description: (§3) Bret studies of receptor trafficking were conducted to quantify PAR2 internalisation (RIT-venus) and trafficking to early endosomes (Rab5a-venus) upon stimulation with different agonists.
(§4) After achieving ˜50% confluency within 10 cm dishes HEK293 cells were transiently transfected with 1 μg PAR2-RLuc8 and 4 μg of either RIT-venus or Rab5a-venus using PEI as a transfection agent. 24 hours post transfection, cells were seeded into poly-D-lysine coated 96-well isoplates. […] When used endocytic inhibitors were diluted in 1×HBSS+1% dimethyl sulfoxide (DMSO). Following the replacement of culture media cells were allowed to equilibrate at 37° C. for 30 minutes before the addition of colenterazine H [5 μM]. After a further 5 minute incubation BRET was assessed using a LUMIstar Omega microplate reader (BMG LabTech, Offenburg, Germany), with luminescence being read at 535 nm and 475 nm. A 4 minute baseline was obtained before the addition of vehicle (1×HBSS+/−1% DMSO) or protease, measurements were then continued for a further 30 minutes. BRET ratios were calculated using LUMIstar MARS analysis software and then corrected to baseline and vehicle treatments in Microsoft Excel 2013.

PAR2 [4] = assay: Whole population FRET with cytosolic ERK sensor CytoEKAR in HEK293 cells; type: cell-based
Description: as §1
After achieving ˜50% confluency within 10 cm dishes HEK293 cells were transfected with 2-5 μg of PAR2 with N-terminal HA epitope tag (PAR2-HA) and 2-5 μg of desired FRET biosensor, using PEI as a transfection agent. 24 hours after transfection, cells were seeded into poly-D-lysine coated black 96 well isoplates. FRET was assessed 48 hours after cell plating, following overnight serum restriction. […] When used endocytic inhibitors were diluted in 1×HBSS+1% dimethyl sulfoxide (DMSO). Following the replacement of culture media cells were allowed to equilibrate at 37° C. for 30 minutes. FRET was then determined using a PHERAstar FS microplate reader (BMG LabTech, Offenburg, Germany), cells were sequentially excited at 430 nm with emissions being read at 550 nm and 490 nm. A 4 minute baseline was obtained before the addition of vehicle (1×HBSS+/−1% DMSO), protease or 1 μM PDBu (serving as a positive control). Measurements were then continued every minute for a further 30 minutes. FRET ratios were then calculated and corrected to baseline and vehicle treatments in Microsoft Excel 2013.

PAR2 [5] = assay: BRET receptor trafficking, PAR2-RLuc8 with plasma membrane marker RIT-venus in HEK293 cells; type: cell-based
Description: as §3, §4

[6] = Protease-evoked paw edema, hindpaw thickness; type: in vivo, mice; conditions: ipsilateral paw
Description: (§5) Immediately before experiments the mice were acclimatized to the experimental apparatus, room and investigator for 1-2 h on 2 successive days. Mechanical nociceptive responses were evaluated by paw withdrawal to stimulation of the plantar surface of the hind-paw with calibrated von Frey filaments. von Frey scores were measured in triplicate to establish a baseline for each animal on the day before experiments. Paw edema was estimated by measuring the thickness of the hindpaw using digital calipers before and after treatments. Mice were […] with 5% isoflurane for intraplantar injections. Dyngo4a (50 μM), PitStop2 (50 μM) or vehicle (0.2% DMSO in 0.9% NaCl) (all 10 μl) were injected into the left hindpaw. After 30 min, trypsin (10 nM), Cat-S (2.5 μM) or elastase (30 U) (all 10 μl) were injected into the same left hindpaw. von Frey scores (left and right paws) and paw thickness (left paw) were measured hourly for up to 4 h after protease injection. Investigators were blinded to the test agents.

[7] = Protease-evoked mechanical hyperalgesia, von Frey paw withdrawal; type: in vivo, mice; conditions: ipsilateral paw
Description: as §5

PAR2 [8] = assay: FRET biosensors for compartmentalised cAMP, PKC and ERK signals in HEK cells and rat dorsal root ganglia neurons; type: cell-based
Description: as §2

DRG neurons = assay: Perforated patch-clamp excitability (rheobase) of isolated DRG neurons; type: cell-based, mice; conditions: 0 min and 30 min after washing
Description: To assess the effects of proteases on excitability of nociceptors, DRG neurons were preincubated with trypsin, cathepsin S, elastase or vehicle (control), washed, and rheobase and action potential discharge at a current of twice rheobase were measured at 0 min or 30 min after washing.
DRG (T9-T13) from C57BL/6 mice were digested by incubation in collagenase (1 mg/ml, Worthington Biochemical, Lakewood, N.J.) and dispase (4 mg/ml, Roche Life Science, Indianapolis, Ind.) for 10 min at 37° C., and were dispersed by trituration with a fire-polished Pasteur pipette. Cells were plated onto coverslips coated with laminin (0.017 mg/ml) and poly-D-lysine (2 mg/ml) in 24-well plates. Neurons were cultured in F12 medium (Cat N668, Lot RNBD5333, Sigma-Aldrich, St Louis, Mo. USA) containing 10% fetal calf serum, with penicillin and streptomycin and maintained at 37° C. in a humidified atmosphere of 95% air and 5% CO2 until retrieval (16 h) for electrophysiological studies.
Neuronal excitability was assessed by perforated patch-clamp recordings with amphotericin B (240 μg/ml) from small diameter neurons (<30 pF capacitance) in current clamp mode at room temperature. Only neurons with resting membrane potentials more negative than −40 mV were analyzed. Changes in excitability were quantified by measuring rheobase (minimum current to fire action potential) and numbers of action potentials discharged at twice rheobase. Recordings were made using Axopatch 200B amplifiers, digitized by Digidata 1322A and stored and processed using pClamp 10.1 software (Molecular Devices, Sunnyvale, Calif.). The recording chamber was continuously perfused with external solution at 2 ml/min. External solution was (mM): 140 NaCl, 5 KCl, 10 HEPES, 10 D-glucose, 1 MgCl2, 2 CaCl2; pH to 7.4 with 3 M NaOH. Pipette solution was (mM): 110 K-gluconate, 30 KCl, 10 HEPES, 1 MgCl2, 2 CaCl2; pH 7.25 with 1 M KOH.
DRG neurons were pre-incubated with vehicle (control) or proteases using conditions that we have reported to cause robust hyperexcitability: trypsin (50 nM, 10 min), elastase (10 U/ml, 390 nM, 30 min), Cat-S (500 nM, 60 min). Neurons were then washed and maintained in protease-free F12 medium. Neuronal excitability was assessed 0 or 30 min after washing. In some experiments, neurons were incubated with vehicle (0.3% DMSO), Dyngo4a (30 μM) or PitStop2 (15 μM) for 30 min before and during incubation with proteases.
Results are expressed as mean±SE. Two way ANOVA and post hoc Tukey's tests were used to analyze the data.

**Q.** Which results are given for trypsin?
**A.** Ability of agonist to produce ERK signals within the nucleus (PAR2 [1]): able to produce ERK signals; PAR2 endocytosis induced by agonist (PAR2 [2]): increases BRET between PAR2 and Rab5a and decreases BRET between PAR2 and KRas; EC50 (PAR2 [3]; Rab5a-venus, CRC from AUC data, read-out: EC50 of trypsin induced internalisation of PAR2, early endosomal marker): ~2.8 nM; Change in BRET between PAR2 and early endosomal marker upon agonist stimulation (PAR2 [3]; trypsin 10 nM): increase in BRET; Ability of agonist to produce ERK signals within the cytoplasm (PAR2 [4]): able to produce ERK signals; EC50 (PAR2 [5]; RIT-venus, CRC from AUC data, read-out: EC50 of trypsin induced internalisation of PAR2, plasma membrane marker): ~2.8 nM; Change in BRET between PAR2 and plasma membrane marker upon agonist stimulation (PAR2 [5]; trypsin 10 nM): time dependent decrease in BRET; Edema after intraplantar injection of protease [6]: edema of the ipsilateral paw that was maximal after 4 h; Mechanical hyperalgesia after intraplantar injection of protease [7]: caused mechanical hyperalgesia of the ipsilateral paw that was sustained for at least 4 h; Signals generated by protease in subcellular compartments (PAR2 [8]): activated cAMP and protein kinase C (PKC) at the plasma membrane and in the cytosol, and extracellular signal regulate kinase (ERK) in the nucleus and cytosol; Effect of protease on excitability (rheobase) of DRG neurons (DRG neurons): immediate increase in excitability
